Test results: PMC9645382 (Drug development research, 2019)

Biological target: T1, human neutrophil elastase (HNE) (Homo sapiens, UniProt P08246)
T1 sequence (P08246 30-267): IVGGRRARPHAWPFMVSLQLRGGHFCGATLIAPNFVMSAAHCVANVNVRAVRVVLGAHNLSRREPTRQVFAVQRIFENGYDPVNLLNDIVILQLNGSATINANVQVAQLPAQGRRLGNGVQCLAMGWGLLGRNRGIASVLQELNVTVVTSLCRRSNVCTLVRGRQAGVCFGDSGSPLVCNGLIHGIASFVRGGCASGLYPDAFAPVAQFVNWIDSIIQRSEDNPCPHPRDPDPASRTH
Experiment: HNE inhibition assay
Assay type: biochemical

Structure (SMILES)	IC50 [nM]
Cc1cccc(C(=O)n2cc(-c3ccc(C(F)(F)F)cc3)c(=O)o2)c1 [Compound 4i, 2-(3-Methylbenzoyl)-4-(4-[trifluoromethyl]phenyl)isoxazol-5(2H)-one]	81 ± 28
O=C(C1CC1)n1cc(-c2ccc(C(F)(F)F)cc2)c(=O)o1 [Compound 3i, 2-(Cyclopropanecarbonyl)-4-(4-(trifluoromethyl)phenyl)isoxazol-5(2H)-one]	33 ± 1
O=C(C1CC1)n1cc(-c2ccc(Br)cc2)c(=O)o1 [Compound 3e, 4-(4-Bromophenyl)-2-(cyclopropanecarbonyl)isoxazol-5(2H)-one]	31 ± 3
Cc1cccc(C(=O)n2cc(-c3ccc(Cl)cc3)c(=O)o2)c1 [Compound 4f, 4-(4-Chlorophenyl)-2-(3-methylbenzoyl)isoxazol-5(2H)-one]	25 ± 2
Cc1cccc(C(=O)n2cc(-c3cccc(C)c3)c(=O)o2)c1 [Compound 4c, 2-(3-Methylbenzoyl)-4-(m-tolyl)isoxazol-5(2H)-one]	31 ± 3
Cc1cccc(C(=O)n2cc(-c3ccc(C#N)cc3)c(=O)o2)c1 [Compound 4h, 4-(2-(3-Methylbenzoyl)-5-oxo-2,5-dihydroisoxazol-4-yl)benzonitrile]	78 ± 2
Cc1cccc(-c2cn(C(=O)C3CC3)oc2=O)c1 [Compound 3c, 2-(Cyclopropanecarbonyl)-4-(m-tolyl)isoxazol-5(2H)-one]	22 ± 5
Cc1cccc(C(=O)n2cc(-c3ccccc3C)c(=O)o2)c1 [Compound 4d, 2-(3-Methylbenzoyl)-4-(o-tolyl)isoxazol-5(2H)-one]	28 ± 3
Cc1ccc(-c2cn(C(=O)c3cccc(C)c3)oc2=O)cc1 [Compound 4b, 2-(3-Methylbenzoyl)-4-(p-tolyl)isoxazol-5(2H)-one]	22 ± 7
O=C(C1CC1)n1cc(-c2ccccc2)c(=O)o1 [Compound 3a, 2-(Cyclopropanecarbonyl)-4-phenylisoxazol-5(2H)-one]	16 ± 5
O=C(C1CC1)n1cc(-c2ccc(Cl)cc2)c(=O)o1 [Compound 3f, 4-(4-Chlorophenyl)-2-(cyclopropanecarbonyl)isoxazol-5(2H)-one]	42 ± 8

More lines, in order of falling IC50, values ahead:

IC50 [nM]	Structure (SMILES)
47 ± 7	Cc1cccc(C(=O)n2cc(-c3ccc(Br)cc3)c(=O)o2)c1 [Compound 4e, 4-(4-Bromophenyl)-2-(3-methylbenzoyl)isoxazol-5(2H)-one]
46 ± 12	Cc1cccc(C(=O)n2cc(-c3ccccc3)c(=O)o2)c1 [Compound 4a, 2-(3-Methylbenzoyl)-4-phenylisoxazol-5(2H)-one]
39 ± 11	Cc1ccccc1-c1cn(C(=O)C2CC2)oc1=O [Compound 3d, 2-(Cyclopropanecarbonyl)-4-(o-tolyl)isoxazol-5(2H)-one]
26 ± 4	Cc1ccc(-c2cn(C(=O)C3CC3)oc2=O)cc1 [Compound 3b, 2-(Cyclopropanecarbonyl)-4-(p-tolyl)isoxazol-5(2H)-one]
23 ± 7	COc1ccc(-c2cn(C(=O)c3cccc(C)c3)oc2=O)cc1 [Compound 4g, 4-(4-Methoxyphenyl)-2-(3-methylbenzoyl)isoxazol-5(2H)-one]
18 ± 5	N#Cc1ccc(-c2cn(C(=O)C3CC3)oc2=O)cc1 [Compound 3h, 4-(2-(Cyclopropanecarbonyl)-5-oxo-2,5-dihydroisoxazol-4-yl)benzonitrile]
11 ± 3	COc1ccc(-c2cn(C(=O)C3CC3)oc2=O)cc1 [Compound 3g, 2-(Cyclopropanecarbonyl)-4-(4-methoxyphenyl)isoxazol-5(2H)-one]
